# Assay results as given in the supplement of paper PMC10307832.
# Legend:
# Test in all cases: relative viability (nuclei count vs DMSO), 5 days (fraction); higher = more cells survive
# VX-702 + Palbociclib = compound: NC(=O)c1ccc(N(C(N)=O)c2c(F)cccc2F)nc1-c1ccc(F)cc1F [VX-702] + CC(=O)c1c(C)c2cnc(Nc3ccc(N4CCNCC4)cn3)nc2n(C2CCCC2)c1=O [Palbociclib] (partner 0.5 µM)
# Method in brief: (§1)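 A single step with final 0.05% Triton X-100, 1% formaldehyde and 1 ug/ml Hoechst fixed the cells and stained nuclei 5 days after treatment. Lung cancer cell lines in 1536-well plates had been treated by pin tool the day after seeding with one drug alone or a fixed anchor-drug dose plus five library-drug doses (not always all listed) in √10 steps, and nuclei were counted on 4× images. Relative viability is the ratio of nuclei in treated wells to nuclei in vehicle wells, taken as the median of duplicate plates.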
# Dabrafenib + Palbociclib = compound: CC(C)(C)c1nc(-c2cccc(NS(=O)(=O)c3c(F)cccc3F)c2F)c(-c2ccnc(N)n2)s1 [Dabrafenib] + CC(=O)c1c(C)c2cnc(Nc3ccc(N4CCNCC4)cn3)nc2n(C2CCCC2)c1=O [Palbociclib] (partner 0.5 µM)
# Method in brief: as §1
# VX-702 + Olaparib = compound: NC(=O)c1ccc(N(C(N)=O)c2c(F)cccc2F)nc1-c1ccc(F)cc1F [VX-702] + O=C(c1cc(Cc2n[nH]c(=O)c3ccccc23)ccc1F)N1CCN(C(=O)C2CC2)CC1 [Olaparib] (partner 8 µM)
# Method in brief: as §1
# VX-702 + Pictilisib = compound: NC(=O)c1ccc(N(C(N)=O)c2c(F)cccc2F)nc1-c1ccc(F)cc1F [VX-702] + CS(=O)(=O)N1CCN(Cc2cc3nc(-c4cccc5[nH]ncc45)nc(N4CCOCC4)c3s2)CC1 [Pictilisib] (partner 1 µM)
# Method in brief: as §1
Cell Line,relative viability (VX-702 + Palbociclib; first compound 0.02 µM),relative viability (VX-702 + Palbociclib; first compound 0.2 µM),relative viability (VX-702 + Palbociclib; first compound 0.6325 µM),relative viability (VX-702 + Palbociclib; first compound 2 µM),relative viability (Dabrafenib + Palbociclib; first compound 0.003 µM),relative viability (Dabrafenib + Palbociclib; first compound 0.009487 µM),relative viability (Dabrafenib + Palbociclib; first compound 0.03 µM),relative viability (Dabrafenib + Palbociclib; first compound 0.09487 µM),relative viability (Dabrafenib + Palbociclib; first compound 0.3 µM),relative viability (VX-702 + Olaparib; first compound 0.02 µM),relative viability (VX-702 + Olaparib; first compound 0.2 µM),relative viability (VX-702 + Olaparib; first compound 0.6325 µM),relative viability (VX-702 + Olaparib; first compound 2 µM),relative viability (VX-702 + Pictilisib; first compound 0.02 µM),relative viability (VX-702 + Pictilisib; first compound 0.2 µM),relative viability (VX-702 + Pictilisib; first compound 0.6325 µM),relative viability (VX-702 + Pictilisib; first compound 2 µM)
NCI-H838,0.225,0.214,0.198,0.227,0.207,0.238,0.209,0.214,0.236,0.772,0.715,0.827,0.926,0.467,0.408,0.517,0.47
LCLC-103H,0.459,0.498,0.439,0.434,0.467,0.495,0.432,0.455,0.514,0.788,0.757,0.795,0.817,0.638,0.621,0.666,0.613
NCI-H2085,0.507,0.46,0.506,0.516,0.455,0.463,0.501,0.471,0.456,0.818,0.824,0.878,0.833,0.429,0.47,0.466,0.4
COR-L23,0.271,0.312,0.323,0.341,0.25,0.328,0.245,0.275,0.207,0.351,0.339,0.379,0.386,0.908,0.855,0.772,1.06
NCI-H322M,0.458,0.48,0.489,0.449,,0.545,,0.526,0.477,1.26,0.839,0.806,0.929,0.543,0.528,0.483,0.521
NCI-H1915,0.549,0.499,0.526,0.546,0.52,0.579,0.447,0.417,0.508,0.28,0.257,0.238,0.241,1.14,0.848,0.949,1.1
EPLC-272H,0.312,0.343,0.316,0.311,,0.318,0.286,0.366,0.354,0.856,1.07,0.799,1.07,0.321,0.303,0.33,0.353
NCI-H1734,0.347,0.288,0.323,0.308,,0.352,0.287,0.344,0.347,0.637,0.547,0.51,0.523,0.516,0.388,0.388,0.346
NCI-H2405,0.536,0.515,0.457,0.493,,0.555,0.374,0.491,0.485,0.931,0.805,0.897,0.901,0.459,0.41,0.459,0.572
LK-2,0.533,0.618,0.567,0.614,0.687,0.377,,0.555,0.84,0.68,0.601,0.555,0.751,0.457,,0.385,0.594
NCI-H1666,0.683,0.69,0.595,0.526,0.643,0.671,0.675,0.565,0.686,0.804,0.754,0.826,0.733,0.513,0.439,0.454,0.263
CAL-12T,0.427,0.507,0.496,0.347,0.461,0.486,0.599,0.388,0.722,0.798,0.69,0.711,0.697,0.482,0.185,0.536,0.534
NCI-H2347,0.455,0.473,0.466,0.476,,0.513,0.471,0.476,0.432,0.498,0.467,0.638,0.456,0.754,0.596,0.703,0.347
NCI-H1944,0.303,0.326,0.337,0.32,0.325,0.342,0.326,0.319,0.318,0.413,0.435,0.432,0.403,0.362,0.333,0.326,0.284
A-427,0.541,0.52,0.537,0.526,0.485,0.537,0.509,0.459,0.533,0.779,0.751,0.725,0.943,0.786,0.706,0.701,0.566
NCI-H520,0.229,0.275,0.191,0.231,0.216,0.228,0.196,0.241,0.217,0.358,0.305,0.379,0.289,0.282,0.216,0.25,0.306
ABC-1,0.569,0.633,0.826,0.8,,1.01,0.704,0.607,1.03,0.443,0.894,1.03,0.746,0.829,,0.649,0.655
NCI-H647,0.349,0.373,0.378,0.495,0.328,0.377,0.305,0.395,0.349,0.752,0.509,0.427,0.744,0.479,0.432,0.461,0.644
